Assays:
OVCAR3 = test: CCK-8 cell viability assay; format: cell-based
Experimental: Tumor cells OVCAR3 (ovarian cancer), HeLa ([…]), U251 (glioma), H9 cells, and non-tumor HEK293 cells were cultured in DMEM/F12 medium supplemented with 10% FBS and 1% P/S. When cells reached 70% confluency, they were digested with 0.25% Trypsin at 37°C for 2-3 minutes, and digestion was stopped with DMEM/F12 medium. Cell suspensions were collected in 15 mL centrifuge tubes, centrifuged at 1000 rpm for 5 minutes, the supernatant was discarded, and cells were resuspended in DMEM/F12 medium with 10% FBS and 1% P/S. Cells were counted using a hemocytometer, and based on the counts, they were resuspended to the desired concentration. Tumor cells were seeded in 96-well plates at 1×10^4 cells per well, 100 µL per well. From day 1 to day 7 after seeding, cells were treated with compound II-1 at 0 µM, 10 µM, 30 µM, and 50 µM (the pyrazolecarbonyl piperazinone compounds were diluted to 10 µM, 30 µM, and 50 µM with DMEM + 10% FBS). Each concentration was tested in triplicate wells.
Cell viability on days 1, 3, 5, and 7 was determined using the CCK-8 cell proliferation/cytotoxicity assay kit (Vazyme, A311-02) by measuring absorbance at OD450 nm, with wells containing only medium and CCK-8 solution as blank controls. Each concentration was measured in triplicate.
Calculation of cell survival rate: For the same cell type at the same time point, the absorbance of cells not treated with compound II-1 was set as 100% baseline. For cells treated with different concentrations, the absorbance was compared with the control group (CK) to calculate the relative proportion. For example, the survival rate of H9 cells on day 4 treated with 30 µM of the small molecule compound was calculated as follows: [OD(D4)30μMiPS]/[OD(D4)0μMH9] × 100% [formula] Table 2. Cell survival rates of various cell types after treatment with different concentrations of compound II-1 measured by CCK-8 assay

BMPR2 = molecular target: T1, BMPR2 (Homo sapiens, UniProt Q13873); test: Kinase activity assay (HTRF or ADP-Glo); format: biochemical
T1 sequence (Q13873 27-1038): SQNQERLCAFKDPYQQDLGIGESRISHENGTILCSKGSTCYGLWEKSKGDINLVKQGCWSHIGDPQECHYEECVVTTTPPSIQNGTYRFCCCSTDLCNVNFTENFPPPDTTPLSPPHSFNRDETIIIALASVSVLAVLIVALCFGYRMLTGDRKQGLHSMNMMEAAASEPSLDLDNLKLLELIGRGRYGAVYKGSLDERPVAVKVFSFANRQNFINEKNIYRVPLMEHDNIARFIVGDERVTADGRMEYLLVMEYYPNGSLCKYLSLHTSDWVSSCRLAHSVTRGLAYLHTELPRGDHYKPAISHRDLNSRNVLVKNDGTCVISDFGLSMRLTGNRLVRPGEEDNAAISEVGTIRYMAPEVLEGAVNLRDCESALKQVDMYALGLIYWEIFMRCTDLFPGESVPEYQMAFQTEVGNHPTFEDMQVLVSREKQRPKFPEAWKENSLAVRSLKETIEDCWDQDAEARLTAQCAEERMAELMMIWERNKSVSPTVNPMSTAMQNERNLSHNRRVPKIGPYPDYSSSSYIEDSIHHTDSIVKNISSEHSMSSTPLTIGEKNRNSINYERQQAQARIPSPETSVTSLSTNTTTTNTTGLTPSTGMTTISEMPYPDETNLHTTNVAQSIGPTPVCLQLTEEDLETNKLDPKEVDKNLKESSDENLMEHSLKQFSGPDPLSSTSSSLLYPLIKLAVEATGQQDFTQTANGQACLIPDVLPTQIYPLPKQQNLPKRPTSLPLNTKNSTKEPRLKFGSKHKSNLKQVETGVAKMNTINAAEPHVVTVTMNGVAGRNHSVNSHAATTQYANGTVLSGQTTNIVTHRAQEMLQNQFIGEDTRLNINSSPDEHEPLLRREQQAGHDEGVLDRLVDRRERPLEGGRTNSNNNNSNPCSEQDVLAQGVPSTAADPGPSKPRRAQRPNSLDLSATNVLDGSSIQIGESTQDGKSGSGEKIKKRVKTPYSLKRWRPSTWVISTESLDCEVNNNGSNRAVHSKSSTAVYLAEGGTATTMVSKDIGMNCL
Experimental: (§1) A total of 330 kinase candidates (15-50 nM, 2.5 µL) were mixed with compound II-1 (2.5 mM, 25 nL, prepared in DMSO) and incubated at 25 °C for 10 minutes. Then, a mixture of kinase peptide substrate (0.2 mg/mL; supplier: GenScript) and ATP (10-60 µM; supplier: Promega; product number: V915B) was added (total 2.5 µL, prepared in assay buffer), and the reaction was carried out at 25 °C for 60-120 minutes. Finally, the reaction products were quantified using HTRF1 or ADP-Glo2 methods. During the kinase activity assay, the consumption of each substrate was kept below 10%, and each kinase assay was performed in duplicate.

TGFBR1 = molecular target: T2, TGFBR1 (Homo sapiens, UniProt P36897); test: Kinase activity assay (HTRF or ADP-Glo); format: biochemical
T2 sequence (P36897 34-503): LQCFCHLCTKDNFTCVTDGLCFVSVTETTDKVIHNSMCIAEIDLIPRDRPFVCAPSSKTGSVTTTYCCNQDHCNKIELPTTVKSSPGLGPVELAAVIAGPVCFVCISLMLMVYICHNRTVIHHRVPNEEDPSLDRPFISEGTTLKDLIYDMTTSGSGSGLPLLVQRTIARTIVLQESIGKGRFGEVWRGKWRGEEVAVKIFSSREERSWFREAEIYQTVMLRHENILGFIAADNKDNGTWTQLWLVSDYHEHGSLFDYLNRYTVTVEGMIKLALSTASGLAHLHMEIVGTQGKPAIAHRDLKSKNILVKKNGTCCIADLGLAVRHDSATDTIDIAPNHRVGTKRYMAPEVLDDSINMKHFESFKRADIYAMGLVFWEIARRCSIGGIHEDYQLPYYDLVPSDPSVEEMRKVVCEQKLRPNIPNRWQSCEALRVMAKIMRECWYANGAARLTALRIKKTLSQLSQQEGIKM
Experimental: as §1

BMPR1B kinase = BMPR1B kinase (Homo sapiens, UniProt O00238); test: Kinase activity screening (330 kinases, HTRF or ADP-Glo); format: biochemical; conditions: screen of 330 kinases; II-1 2.5 mM, 25 nL in DMSO added to 2.5 µL kinase; Figure 1A
Sequence of BMPR1B kinase (O00238 14-502): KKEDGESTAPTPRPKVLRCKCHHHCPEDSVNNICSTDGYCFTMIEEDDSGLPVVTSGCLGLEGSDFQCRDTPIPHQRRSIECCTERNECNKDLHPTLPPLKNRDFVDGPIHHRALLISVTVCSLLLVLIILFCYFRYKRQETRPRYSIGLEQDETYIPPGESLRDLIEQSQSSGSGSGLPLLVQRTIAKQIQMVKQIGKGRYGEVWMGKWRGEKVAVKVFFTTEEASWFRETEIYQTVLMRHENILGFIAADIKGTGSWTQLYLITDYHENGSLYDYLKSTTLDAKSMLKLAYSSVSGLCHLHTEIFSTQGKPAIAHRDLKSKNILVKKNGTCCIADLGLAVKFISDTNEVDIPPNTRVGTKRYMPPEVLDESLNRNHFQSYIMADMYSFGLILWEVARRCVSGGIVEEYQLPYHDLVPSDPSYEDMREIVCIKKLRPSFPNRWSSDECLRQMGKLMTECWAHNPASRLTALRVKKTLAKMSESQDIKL
Experimental: as §1

[1] = same concentration as in the 330 kinase screen

inhibition of BMPR2 kinase (BMPR2; different concentrations, up to 12.5 µM, threefold serial dilution, Figure 1C): no inhibition | inhibition of kinase activity of BMPR2 (BMPR2; [1]): did not inhibit | inhibition of TGFBR1 kinase (TGFBR1; different concentrations, up to 12.5 µM, threefold serial dilution, Figure 1B): no inhibition | inhibition of kinase activity of TGFBR1 (TGFBR1; [1]): did not inhibit | inhibitory activity against BMPR1B kinase (BMPR1B kinase): significant inhibitory activity
SMILES: O=C1CN(C(=O)c2n[nH]c3c2CCC3)[C@H]2CCCC[C@@H]2N1 [II-1, (4aS,8aS)-4-(1,4,5,6-tetrahydrocyclopenta[c]pyrazole-3-carbonyl)octahydroquinoxalin-2(1H)-one]
Cell survival rate (OVCAR3; OVCAR3, II-1 10 µM, Day 1 Treatment): 95.05% | Cell survival rate (OVCAR3; OVCAR3, II-1 10 µM, Day 3 Treatment): 98.06% | Cell survival rate (OVCAR3; OVCAR3, II-1 10 µM, Day 5 Treatment): 96.19% | Cell survival rate (OVCAR3; OVCAR3, II-1 10 µM, Day 7 Treatment): 97.99% | Cell survival rate (OVCAR3; OVCAR3, II-1 30 µM, Day 1 Treatment): 89.67% | Cell survival rate (OVCAR3; OVCAR3, II-1 30 µM, Day 3 Treatment): 94.18% | Cell survival rate (OVCAR3; OVCAR3, II-1 30 µM, Day 5 Treatment): 92.35% | Cell survival rate (OVCAR3; OVCAR3, II-1 30 µM, Day 7 Treatment): 90.98% | Cell survival rate (OVCAR3; OVCAR3, II-1 50 µM, Day 1 Treatment): 88.56% | Cell survival rate (OVCAR3; OVCAR3, II-1 50 µM, Day 3 Treatment): 90.37% | Cell survival rate (OVCAR3; OVCAR3, II-1 50 µM, Day 5 Treatment): 85.37% | Cell survival rate (OVCAR3; OVCAR3, II-1 50 µM, Day 7 Treatment): 80.83% | cell viability, course with time and concentration (OVCAR3; OVCAR3, II-1 10-50 µM, days 1-7): gradual decrease in cell viability over time

— patent EP4717694A1, “PYRAZOLFORMYL PIPERAZINONE COMPOUND, PHARMACEUTICAL COMPOSITION AND USE THEREOF” (Iregene Therapeutics Co., Ltd., priority 2023, dated 2024)
